# Columns and labels:
# Format in all cases: cell-based
# EGFR L858R-T790M-C797S = target: T1, EGFR L858R-T790M-C797S (Homo sapiens, UniProt P00533, C797S/L858R/T790M); experiment: EGFR degradation, Total EGFR (L858R-specific) HTRF, NCI-H1975+CS; settings: H1975 + CS (L858R-T790M-C797S), 6 hours; read-out: tEGFR DC50
# T1 construct: generated using CRISPR technology to introduce the additional C797S mutation by Horizon Discovery; host or cells: NCI-H1975+CS (CRISPR knock-in of C797S)
# Method in brief: (§1)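 HTRF read-outs: pY1068 phospho-EGFR for IC50; total EGFR (pan-EGFR in A431, L858R-specific in mutant lines) for DC50. Compounds were titrated 11 points, half-log, from 10 μM in duplicate onto cells in 10% FBS RPMI, incubated 6 h at 37°C.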
# [1] = tested on: BaF3 cells expressing EGFR L858R-T790M; experiment: Ba/F3 EGFR cell viability (CellTiter-Glo), L858R-T790M; settings: Mus musculus, read-out: CTGlo (GI50)
# Description: (§2) RPMI 1640 media, cell culture flasks, and 384-well microplates were purchased from VWR (Radnor, PA, USA). Fetal bovine serum (FBS) was purchased from Life Technologies (Carlsbad, CA, USA) and CellTiter-Glo® was purchased from Promega (Madison, WI, USA). The Ba/F3 parental cell line was purchased from CrownBio (Santa Clara, CA). BaF3 cell lines ectopically expressing the EGFR mutations L858R, L858R-T790M, L858R-C797S, and L858R-T790M-C797S were purchased from CrownBio and EGFR mutations L858R-L718Q, L858R-T790M-L718Q, L858R-L792H, and L858R-T790M-L792H, were purchased from Signosis (Santa Clara, CA).
# (§3) Cell viability was assessed based on the quantification of ATP using the CellTiter-Glo® assay (Promega, Madison, WI, USA). To determine the effect of compounds on cell viability, all Ba/F3 cell lines were plated at a cell density of 2000 cells/well in 384-well plates using RPMI 1640+10% FBS and treated with compounds of interest using a 10-point half-log dilution series in duplicate for 72 hours, with the highest dose set at […]. CellTiter-Glo® reagent was then added and luminescence signals were measured using an EnVision™ Multimode plate reader (Perkin Elmer, Santa Clara, CA). For data normalization, cells untreated with the test compounds at Time=72 hours were set to 100% (equivalent to maximal cell growth after 72 hours); cells untreated with the test compounds at Time=0 hours were set to 0% (equivalent to cytostasis); and media-only wells were set to −100% (equivalent to complete cytotoxicity). % Viability was determined by normalizing the signal with positive and DMSO treated negative controls on the same microtiter plate. The half-maximal inhibition of cell growth (GI50) is computed from where the fitted curve crosses 50% while the half-maximal lethal dose (LD50) is computed from where the fitted curve crosses −50%.
# pY1068 EGFR L858R-T790M = target: T2, pY1068 EGFR L858R-T790M (Homo sapiens, UniProt P00533, L858R/T790M); experiment: Phospho-EGFR (pY1068) inhibition HTRF, NCI-H1975; settings: 6 hours, read-out: pEGFR IC50
# T2 construct: NCI-H1975 (harboring EGFR heterozygous L858R-T790M mutations); host or cells: NCI-H1975
# T2 sequence (P00533 25-1210 T790M/L858R): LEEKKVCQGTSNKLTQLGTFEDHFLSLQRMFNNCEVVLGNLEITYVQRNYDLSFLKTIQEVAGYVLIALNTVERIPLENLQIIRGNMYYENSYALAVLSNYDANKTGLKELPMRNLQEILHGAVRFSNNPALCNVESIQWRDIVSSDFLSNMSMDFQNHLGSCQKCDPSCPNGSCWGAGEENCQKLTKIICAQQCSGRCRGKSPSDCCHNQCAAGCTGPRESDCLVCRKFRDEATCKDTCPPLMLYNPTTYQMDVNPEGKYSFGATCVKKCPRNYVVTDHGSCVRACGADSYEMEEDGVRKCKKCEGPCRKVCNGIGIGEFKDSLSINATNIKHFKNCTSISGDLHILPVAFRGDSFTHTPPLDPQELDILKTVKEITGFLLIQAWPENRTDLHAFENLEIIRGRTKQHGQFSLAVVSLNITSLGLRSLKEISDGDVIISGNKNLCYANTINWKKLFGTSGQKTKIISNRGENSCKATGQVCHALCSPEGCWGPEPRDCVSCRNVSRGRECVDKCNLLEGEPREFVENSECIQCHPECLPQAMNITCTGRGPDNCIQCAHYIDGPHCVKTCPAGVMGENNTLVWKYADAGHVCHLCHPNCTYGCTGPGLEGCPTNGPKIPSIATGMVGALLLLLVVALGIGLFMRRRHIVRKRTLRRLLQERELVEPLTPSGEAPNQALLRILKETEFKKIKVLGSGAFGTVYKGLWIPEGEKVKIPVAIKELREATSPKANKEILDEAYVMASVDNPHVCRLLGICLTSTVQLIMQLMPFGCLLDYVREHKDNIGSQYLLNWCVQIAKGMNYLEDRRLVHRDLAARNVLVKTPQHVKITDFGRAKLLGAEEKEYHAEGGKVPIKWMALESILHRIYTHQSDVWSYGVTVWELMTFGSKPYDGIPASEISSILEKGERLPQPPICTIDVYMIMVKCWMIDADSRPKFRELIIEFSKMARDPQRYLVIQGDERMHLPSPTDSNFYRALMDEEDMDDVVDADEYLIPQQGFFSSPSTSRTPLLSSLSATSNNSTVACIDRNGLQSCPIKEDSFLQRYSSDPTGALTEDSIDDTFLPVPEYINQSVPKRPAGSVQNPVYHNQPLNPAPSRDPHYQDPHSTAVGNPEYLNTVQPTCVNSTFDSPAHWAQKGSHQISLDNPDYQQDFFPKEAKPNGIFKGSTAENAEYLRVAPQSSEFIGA
# Description: (§4) NCI-H1975 (harboring EGFR heterozygous L858R-T790M mutations) and NCI-H3255 (harboring EGFR heterozygous L858R mutation) were purchased from ATCC and NCI, respectively. NCI-H1975+CS (harboring EGFR heterozygous L858R-T790M-C797S mutations) was generated using CRISPR technology to introduce the additional C797S mutation by Horizon Discovery. A431 (harboring EGFR wildtype) was purchased from ATCC. RPMI 1640 no-phenol red medium and fetal bovine serum (FBS) were purchased from Gibco (Grand Island, NY, USA). Cell culture flasks and 384-well microplates were acquired from VWR (Radnor, PA, USA). Phosphorylated (pY1068) EGFR and Total EGFR (using L858R-specific detection antibody and pan-EGFR antibody for EGFR mutant cell lines and EGFR wild-type cell lines, respectively) HTRF assay kits were purchased from Cisbio (Bedford, MA, USA).
# (§5) Degradation of EGFR protein containing L858R mutation or wild-type was determined based on quantification of FRET signal using a Total EGFR (L858R-specific or pan-EGFR detecting) HTRF assay kit. Phospho-EGFR (pEGFR) inhibition was determined based on quantification of FRET signal using a pY1068 EGFR HTRF assay kit. In separate assay plates, test compounds were added to the 384-well plate from a top concentration of 10 μM with 11 points, half log titration in duplicates. For each assay, 12.5 uL of cells suspended in assay media (RPMI 1640 no-phenol red medium+10% FBS) at cell densities indicated for each cell line in Table 8 below were dispensed using a multi-channel pipette to 384-well low volume white HTRF microplates containing a duplicate concentration range of test compounds and DMSO controls. The plates were kept at 37° C. with 5% CO2 for 6 hours and then incubated with either phospho EGFR or Total EGFR HTRF detection antibodies according to the cell line and EGFR mutant being assayed. Cells treated in the absence of the test compound were the negative control. Positive control was set by wells containing all reagents but no cells. FRET signal was acquired on EnVision™ Multilabel Reader (PerkinElmer, Santa Clara, CA, USA). Compound concentration that achieves 50% degradation and inhibition was reported as DC50 and IC50, respectively.
# EGFR L858R = EGFR L858R (Homo sapiens, UniProt P00533, L858R); experiment: EGFR degradation, Total EGFR (L858R-specific) HTRF, NCI-H3255; set-up: NCI-H3255 (harboring EGFR heterozygous L858R mutation); host or cells: NCI-H3255; settings: H3255 (L858R), 6 hours; read-out: tEGFR DC50
# Method in brief: as §1
# [2] = tested on: BaF3 cells expressing EGFR L858R; experiment: Ba/F3 EGFR cell viability (CellTiter-Glo), L858R; settings: Mus musculus, read-out: CTGlo (GI50)
# Description: as §2, §3
# [3] = tested on: BaF3 cells expressing EGFR L858R-C797S; experiment: Ba/F3 EGFR cell viability (CellTiter-Glo), L858R-C797S; settings: Mus musculus, read-out: CTGlo (GI50)
# Description: as §2, §3
# pY1068 EGFR L858R = target: T3, pY1068 EGFR L858R (Homo sapiens, UniProt P00533, L858R); experiment: Phospho-EGFR (pY1068) inhibition HTRF, NCI-H3255; settings: 6 hours, read-out: pEGFR IC50
# T3 construct: NCI-H3255 (harboring EGFR heterozygous L858R mutation); host or cells: NCI-H3255
# T3 sequence (P00533 25-1210 L858R): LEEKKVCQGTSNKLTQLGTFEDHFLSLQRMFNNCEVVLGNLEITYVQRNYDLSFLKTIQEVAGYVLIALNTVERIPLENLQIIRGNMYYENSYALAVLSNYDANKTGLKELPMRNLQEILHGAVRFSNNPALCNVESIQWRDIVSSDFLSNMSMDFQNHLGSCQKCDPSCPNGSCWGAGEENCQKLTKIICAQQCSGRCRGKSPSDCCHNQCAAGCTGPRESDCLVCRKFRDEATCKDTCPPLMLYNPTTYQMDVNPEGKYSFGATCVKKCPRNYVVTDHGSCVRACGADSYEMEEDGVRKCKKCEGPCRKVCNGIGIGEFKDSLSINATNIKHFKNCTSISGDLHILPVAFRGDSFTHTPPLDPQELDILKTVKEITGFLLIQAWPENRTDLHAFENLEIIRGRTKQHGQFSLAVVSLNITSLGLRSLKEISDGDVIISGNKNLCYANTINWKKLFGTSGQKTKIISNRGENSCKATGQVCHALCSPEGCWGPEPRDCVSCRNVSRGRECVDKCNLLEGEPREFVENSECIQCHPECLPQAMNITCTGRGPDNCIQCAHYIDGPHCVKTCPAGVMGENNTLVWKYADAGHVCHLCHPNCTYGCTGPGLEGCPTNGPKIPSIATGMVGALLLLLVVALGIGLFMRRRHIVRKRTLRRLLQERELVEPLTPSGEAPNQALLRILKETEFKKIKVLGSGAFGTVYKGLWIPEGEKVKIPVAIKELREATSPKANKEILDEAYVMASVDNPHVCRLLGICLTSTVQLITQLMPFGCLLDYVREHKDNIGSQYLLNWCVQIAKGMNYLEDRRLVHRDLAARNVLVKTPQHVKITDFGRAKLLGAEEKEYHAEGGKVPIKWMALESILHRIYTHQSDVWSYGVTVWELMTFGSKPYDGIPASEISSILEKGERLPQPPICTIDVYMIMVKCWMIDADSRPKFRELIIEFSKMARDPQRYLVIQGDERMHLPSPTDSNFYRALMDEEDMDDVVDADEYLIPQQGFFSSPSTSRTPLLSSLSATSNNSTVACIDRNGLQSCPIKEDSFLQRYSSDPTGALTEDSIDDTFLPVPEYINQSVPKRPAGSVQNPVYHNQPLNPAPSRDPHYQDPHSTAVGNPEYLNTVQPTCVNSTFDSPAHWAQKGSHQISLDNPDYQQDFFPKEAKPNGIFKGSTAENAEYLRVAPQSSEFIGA
# Description: as §4, §5
# [4] = tested on: BaF3 cells expressing wild-type EGFR; experiment: Ba/F3 EGFR cell viability (CellTiter-Glo), wild-type EGFR; settings: Mus musculus, Ba/F3 WT EGFR, read-out: CTGlo (GI50)
# [5] = tested on: BaF3 cells expressing EGFR L858R-T790M-C797S; experiment: Ba/F3 EGFR cell viability (CellTiter-Glo), L858R-T790M-C797S; settings: Mus musculus, read-out: CTGlo (GI50)
# Description: as §2, §3
# [6] = target: T4, pY1068 EGFR L858R-T790M-C797S (Homo sapiens, UniProt P00533, C797S/L858R/T790M); experiment: Phospho-EGFR (pY1068) inhibition HTRF, NCI-H1975+CS; settings: 6 hours, read-out: pEGFR IC50
# T4 construct: generated using CRISPR technology to introduce the additional C797S mutation by Horizon Discovery; host or cells: NCI-H1975+CS (CRISPR knock-in of C797S)
# Description: as §4, §5
# EGFR L858R-T790M = target: T5, EGFR L858R-T790M (Homo sapiens, UniProt P00533, L858R/T790M); experiment: EGFR degradation, Total EGFR (L858R-specific) HTRF, NCI-H1975; settings: Table 9A; NCI-H1975 cells, 6 hours, Total EGFR HTRF; read-out: H1975 EGFR DC50
# T5 construct: NCI-H1975 (harboring EGFR heterozygous L858R-T790M mutations); host or cells: NCI-H1975
# T5 sequence (P00533 25-1210 T790M/L858R): as the sequence (P00533 25-1210 T790M/L858R) above
# Method in brief: as §1
# EGFR WT = target: T6, EGFR WT (Homo sapiens, UniProt P00533); experiment: EGFR degradation, Total EGFR (pan-EGFR) HTRF, A431; settings: A431 (wild-type), 6 hours; read-out: tEGFR DC50
# T6 construct: A431 (harboring EGFR wildtype) was purchased from ATCC; host or cells: A431
# T6 sequence (P00533 25-1210): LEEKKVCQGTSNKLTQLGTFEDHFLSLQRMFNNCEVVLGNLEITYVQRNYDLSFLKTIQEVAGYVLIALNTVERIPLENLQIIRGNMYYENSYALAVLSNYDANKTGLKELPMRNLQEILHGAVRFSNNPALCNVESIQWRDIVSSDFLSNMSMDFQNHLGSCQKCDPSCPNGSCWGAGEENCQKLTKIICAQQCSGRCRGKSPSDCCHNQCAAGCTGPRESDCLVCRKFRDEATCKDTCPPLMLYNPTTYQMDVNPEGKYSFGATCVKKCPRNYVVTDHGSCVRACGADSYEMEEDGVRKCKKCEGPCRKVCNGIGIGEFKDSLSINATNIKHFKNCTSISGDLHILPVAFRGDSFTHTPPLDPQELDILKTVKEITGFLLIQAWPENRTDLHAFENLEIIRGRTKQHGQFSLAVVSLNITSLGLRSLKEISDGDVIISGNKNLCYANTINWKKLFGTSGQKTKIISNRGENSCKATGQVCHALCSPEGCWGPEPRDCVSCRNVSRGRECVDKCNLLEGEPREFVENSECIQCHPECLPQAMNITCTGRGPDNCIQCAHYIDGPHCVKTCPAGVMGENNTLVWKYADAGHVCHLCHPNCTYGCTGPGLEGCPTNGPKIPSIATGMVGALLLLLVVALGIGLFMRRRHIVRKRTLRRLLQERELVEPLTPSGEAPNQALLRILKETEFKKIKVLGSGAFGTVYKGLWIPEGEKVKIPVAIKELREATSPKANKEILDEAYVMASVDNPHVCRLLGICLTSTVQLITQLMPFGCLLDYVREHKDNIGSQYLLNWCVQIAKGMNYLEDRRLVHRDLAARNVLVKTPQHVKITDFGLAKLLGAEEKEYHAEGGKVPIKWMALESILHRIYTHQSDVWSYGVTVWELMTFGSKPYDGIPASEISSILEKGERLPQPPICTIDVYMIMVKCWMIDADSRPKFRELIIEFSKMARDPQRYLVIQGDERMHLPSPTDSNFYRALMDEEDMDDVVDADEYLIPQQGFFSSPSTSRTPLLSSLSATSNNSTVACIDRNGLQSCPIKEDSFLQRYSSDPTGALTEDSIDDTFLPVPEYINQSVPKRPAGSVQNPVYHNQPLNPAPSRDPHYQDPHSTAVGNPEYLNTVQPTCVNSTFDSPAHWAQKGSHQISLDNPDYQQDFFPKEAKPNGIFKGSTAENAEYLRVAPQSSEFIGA
# Description: as §4, §5
compound,measurement,setting,value
"Cn1nc(N2CCC(=O)NC2=O)c2ccc(C3CCN(CC(=O)N4CC5(C4)CN(c4ccc(-c6cc(F)c7c(c6)C(=O)N(C(C(=O)Nc6nccs6)c6ncn8c6CCC8)C7)cc4)C5)CC3(F)F)cc21 (stereo not drawn) [Compound 3, 2-(6,7-dihydro-5H-pyrrolo[1,2-c]imidazol-1-yl)-2-[6-[4-[2-[2-[4-[3-(2,4-dioxohexahydropyrimidin-1-yl)-1-methyl-indazol-6-yl]-3,3-difluoro-1-piperidyl]acetyl]-2,6-diazaspiro[3.3]heptan-6-yl]phenyl]-4-fluoro-1-oxo-isoindolin-2-yl]-N-thiazol-2-yl-acetamide]",DC50,EGFR L858R-T790M-C797S,33 nM
same,GI50,[1],9 nM
same,IC50,pY1068 EGFR L858R-T790M,11 nM
same,DC50,EGFR L858R,8 nM
same,GI50,[2],3 nM
same,GI50,[3],2 nM
same,IC50,pY1068 EGFR L858R,8 nM
same,GI50,[4],248 nM
same,GI50,[5],3 nM
same,IC50,[6],19 nM
same,DC50,EGFR L858R-T790M,< 50 nM
same,DC50,EGFR WT,> 10000 nM
